Results taken from the kinase profiling compilation of Christmann-Franck et al. (2016).

What was measured:
Test in all cases: radiometric filter-binding kinase assay, Kinase HotSpot
Conditions in all cases: compound 0.5 µM; ATP 10 µM
CDK6 CCND3 (human) = CDK6 CCND3 (human) (UniProt P30281+Q00534)
DYRK1A (human) = DYRK1A (human) (UniProt Q13627)
CSNK2A1 (human) = CSNK2A1 (human) (UniProt P68400)
FGFR3 (human) = FGFR3 (human) (UniProt P22607)
HCK (human) = HCK (human) (UniProt P08631)
MAP3K7 TAB1 (human) = MAP3K7 TAB1 (human) (UniProt O43318+Q15750)
TTK (human) = TTK (human) (UniProt P33981)
DDR2 (human) = DDR2 (human) (UniProt Q16832)
CSK (human) = CSK (human) (UniProt P41240)
MLTK (human) = MLTK (human) (UniProt Q9NYL2)
BRSK2 (human) = BRSK2 (human) (UniProt Q8IWQ3)
LTK (human) = LTK (human) (UniProt P29376)
PLK2 (human) = PLK2 (human) (UniProt Q9NYY3)
PKN2 (human) = PKN2 (human) (UniProt Q16513)
MYLK (human) = MYLK (human) (UniProt Q15746)
PRKCA (human) = PRKCA (human) (UniProt P17252)
JAK2 JH1 JH2 (human) = JAK2 JH1 JH2 (human) (UniProt O60674)
FGFR2 (human) = FGFR2 (human) (UniProt P21802)
WNK3 (human) = WNK3 (human) (UniProt Q9BYP7)
CLK2 (human) = CLK2 (human) (UniProt P49760)
BLK (human) = BLK (human) (UniProt P51451)
ERBB4 (human) = ERBB4 (human) (UniProt Q15303)
PRKX (human) = PRKX (human) (UniProt P51817)
EPHA3 (human) = EPHA3 (human) (UniProt P29320)
CAMKK2 (human) = CAMKK2 (human) (UniProt Q96RR4)
GSK3A (human) = GSK3A (human) (UniProt P49840)
GSK3A (human), sequence (P49840 whole entry, looked up): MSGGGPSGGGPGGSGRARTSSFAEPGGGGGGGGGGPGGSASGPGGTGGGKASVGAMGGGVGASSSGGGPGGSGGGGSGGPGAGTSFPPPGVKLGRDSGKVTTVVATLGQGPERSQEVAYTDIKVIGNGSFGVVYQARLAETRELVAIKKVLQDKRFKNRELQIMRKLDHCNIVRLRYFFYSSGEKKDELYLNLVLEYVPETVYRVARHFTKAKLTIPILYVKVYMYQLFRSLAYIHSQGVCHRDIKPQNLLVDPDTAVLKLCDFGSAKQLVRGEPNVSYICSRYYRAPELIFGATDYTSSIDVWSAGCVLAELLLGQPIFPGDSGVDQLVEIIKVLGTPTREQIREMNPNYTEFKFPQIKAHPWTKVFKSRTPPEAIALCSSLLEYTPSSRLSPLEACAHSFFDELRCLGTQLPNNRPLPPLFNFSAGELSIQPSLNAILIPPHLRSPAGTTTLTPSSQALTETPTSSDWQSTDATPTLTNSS

GRK6 (human) = GRK6 (human) (UniProt P43250)
GRK6 (human), sequence (P43250 whole entry, looked up): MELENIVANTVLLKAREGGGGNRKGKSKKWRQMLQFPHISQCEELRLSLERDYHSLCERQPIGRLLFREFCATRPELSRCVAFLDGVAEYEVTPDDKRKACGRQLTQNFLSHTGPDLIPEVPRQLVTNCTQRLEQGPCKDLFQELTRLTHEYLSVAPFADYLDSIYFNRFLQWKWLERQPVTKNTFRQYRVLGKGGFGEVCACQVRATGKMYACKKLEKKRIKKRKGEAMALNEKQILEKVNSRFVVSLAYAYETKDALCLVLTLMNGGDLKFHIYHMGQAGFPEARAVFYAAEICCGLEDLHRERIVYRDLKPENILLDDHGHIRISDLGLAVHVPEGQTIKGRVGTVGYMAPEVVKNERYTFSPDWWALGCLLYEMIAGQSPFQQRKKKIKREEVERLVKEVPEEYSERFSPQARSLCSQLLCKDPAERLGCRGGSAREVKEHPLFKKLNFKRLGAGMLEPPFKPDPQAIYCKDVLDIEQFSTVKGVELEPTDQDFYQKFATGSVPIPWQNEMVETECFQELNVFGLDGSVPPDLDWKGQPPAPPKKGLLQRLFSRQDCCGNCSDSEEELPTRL

RPS6KA6 KD1 KD2 (human) = RPS6KA6 KD1 KD2 (human) (UniProt Q9UK32)
SIK2 (human) = SIK2 (human) (UniProt Q9H0K1)
ALK (human) = ALK (human) (UniProt Q9UM73)
ALK (human), sequence (Q9UM73 whole entry, looked up): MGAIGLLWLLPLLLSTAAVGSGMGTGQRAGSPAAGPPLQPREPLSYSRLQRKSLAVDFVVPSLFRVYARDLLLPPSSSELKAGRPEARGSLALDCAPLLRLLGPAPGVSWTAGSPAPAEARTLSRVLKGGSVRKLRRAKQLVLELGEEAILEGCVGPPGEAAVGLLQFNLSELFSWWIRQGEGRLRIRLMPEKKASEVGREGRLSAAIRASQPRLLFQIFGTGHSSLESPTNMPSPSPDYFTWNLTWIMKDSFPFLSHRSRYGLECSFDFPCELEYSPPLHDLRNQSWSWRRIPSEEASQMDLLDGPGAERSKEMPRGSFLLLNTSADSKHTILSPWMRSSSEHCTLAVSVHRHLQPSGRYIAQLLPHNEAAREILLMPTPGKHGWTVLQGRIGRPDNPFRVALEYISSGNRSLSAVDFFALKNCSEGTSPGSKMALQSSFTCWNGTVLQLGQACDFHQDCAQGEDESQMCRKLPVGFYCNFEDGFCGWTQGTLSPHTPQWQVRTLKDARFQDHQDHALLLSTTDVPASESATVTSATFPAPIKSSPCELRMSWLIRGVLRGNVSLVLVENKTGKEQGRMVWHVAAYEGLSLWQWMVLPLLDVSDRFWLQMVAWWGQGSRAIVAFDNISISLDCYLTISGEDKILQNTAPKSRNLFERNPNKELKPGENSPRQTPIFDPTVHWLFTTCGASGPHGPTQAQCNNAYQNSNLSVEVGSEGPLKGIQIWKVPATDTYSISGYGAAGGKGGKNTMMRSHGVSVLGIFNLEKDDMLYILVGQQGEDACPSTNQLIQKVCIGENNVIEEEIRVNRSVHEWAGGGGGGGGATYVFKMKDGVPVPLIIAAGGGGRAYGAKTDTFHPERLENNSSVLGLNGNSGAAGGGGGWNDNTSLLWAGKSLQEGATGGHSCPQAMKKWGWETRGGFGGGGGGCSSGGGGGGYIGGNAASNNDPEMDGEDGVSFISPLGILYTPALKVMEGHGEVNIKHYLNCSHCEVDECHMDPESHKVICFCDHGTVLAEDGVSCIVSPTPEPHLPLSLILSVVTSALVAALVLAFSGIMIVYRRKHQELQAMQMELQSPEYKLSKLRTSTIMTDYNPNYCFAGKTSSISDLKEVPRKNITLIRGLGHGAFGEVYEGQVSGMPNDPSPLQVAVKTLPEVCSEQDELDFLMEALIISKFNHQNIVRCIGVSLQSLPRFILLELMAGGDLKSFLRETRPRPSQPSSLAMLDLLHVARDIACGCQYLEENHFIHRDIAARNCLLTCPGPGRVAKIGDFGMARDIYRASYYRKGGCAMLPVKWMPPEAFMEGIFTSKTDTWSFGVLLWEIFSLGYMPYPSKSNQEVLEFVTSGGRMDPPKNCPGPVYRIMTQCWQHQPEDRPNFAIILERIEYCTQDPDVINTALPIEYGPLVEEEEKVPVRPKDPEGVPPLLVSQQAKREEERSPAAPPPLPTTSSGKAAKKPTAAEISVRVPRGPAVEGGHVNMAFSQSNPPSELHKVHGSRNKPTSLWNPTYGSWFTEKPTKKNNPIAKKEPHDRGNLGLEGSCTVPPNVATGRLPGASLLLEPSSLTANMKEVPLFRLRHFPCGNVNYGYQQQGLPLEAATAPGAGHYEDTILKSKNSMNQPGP

STK16 (human) = STK16 (human) (UniProt O75716)
ZAP70 (human) = ZAP70 (human) (UniProt P43403)
DAPK2 (human) = DAPK2 (human) (UniProt Q9UIK4)
NEK4 (human) = NEK4 (human) (UniProt P51957)
RPS6KA4 KD2 (human) = RPS6KA4 KD2 (human) (UniProt O75676)
SRPK1 (human) = SRPK1 (human) (UniProt Q96SB4)
WNK2 (human) = WNK2 (human) (UniProt Q9Y3S1)
WNK2 (human), sequence (Q9Y3S1 whole entry, looked up): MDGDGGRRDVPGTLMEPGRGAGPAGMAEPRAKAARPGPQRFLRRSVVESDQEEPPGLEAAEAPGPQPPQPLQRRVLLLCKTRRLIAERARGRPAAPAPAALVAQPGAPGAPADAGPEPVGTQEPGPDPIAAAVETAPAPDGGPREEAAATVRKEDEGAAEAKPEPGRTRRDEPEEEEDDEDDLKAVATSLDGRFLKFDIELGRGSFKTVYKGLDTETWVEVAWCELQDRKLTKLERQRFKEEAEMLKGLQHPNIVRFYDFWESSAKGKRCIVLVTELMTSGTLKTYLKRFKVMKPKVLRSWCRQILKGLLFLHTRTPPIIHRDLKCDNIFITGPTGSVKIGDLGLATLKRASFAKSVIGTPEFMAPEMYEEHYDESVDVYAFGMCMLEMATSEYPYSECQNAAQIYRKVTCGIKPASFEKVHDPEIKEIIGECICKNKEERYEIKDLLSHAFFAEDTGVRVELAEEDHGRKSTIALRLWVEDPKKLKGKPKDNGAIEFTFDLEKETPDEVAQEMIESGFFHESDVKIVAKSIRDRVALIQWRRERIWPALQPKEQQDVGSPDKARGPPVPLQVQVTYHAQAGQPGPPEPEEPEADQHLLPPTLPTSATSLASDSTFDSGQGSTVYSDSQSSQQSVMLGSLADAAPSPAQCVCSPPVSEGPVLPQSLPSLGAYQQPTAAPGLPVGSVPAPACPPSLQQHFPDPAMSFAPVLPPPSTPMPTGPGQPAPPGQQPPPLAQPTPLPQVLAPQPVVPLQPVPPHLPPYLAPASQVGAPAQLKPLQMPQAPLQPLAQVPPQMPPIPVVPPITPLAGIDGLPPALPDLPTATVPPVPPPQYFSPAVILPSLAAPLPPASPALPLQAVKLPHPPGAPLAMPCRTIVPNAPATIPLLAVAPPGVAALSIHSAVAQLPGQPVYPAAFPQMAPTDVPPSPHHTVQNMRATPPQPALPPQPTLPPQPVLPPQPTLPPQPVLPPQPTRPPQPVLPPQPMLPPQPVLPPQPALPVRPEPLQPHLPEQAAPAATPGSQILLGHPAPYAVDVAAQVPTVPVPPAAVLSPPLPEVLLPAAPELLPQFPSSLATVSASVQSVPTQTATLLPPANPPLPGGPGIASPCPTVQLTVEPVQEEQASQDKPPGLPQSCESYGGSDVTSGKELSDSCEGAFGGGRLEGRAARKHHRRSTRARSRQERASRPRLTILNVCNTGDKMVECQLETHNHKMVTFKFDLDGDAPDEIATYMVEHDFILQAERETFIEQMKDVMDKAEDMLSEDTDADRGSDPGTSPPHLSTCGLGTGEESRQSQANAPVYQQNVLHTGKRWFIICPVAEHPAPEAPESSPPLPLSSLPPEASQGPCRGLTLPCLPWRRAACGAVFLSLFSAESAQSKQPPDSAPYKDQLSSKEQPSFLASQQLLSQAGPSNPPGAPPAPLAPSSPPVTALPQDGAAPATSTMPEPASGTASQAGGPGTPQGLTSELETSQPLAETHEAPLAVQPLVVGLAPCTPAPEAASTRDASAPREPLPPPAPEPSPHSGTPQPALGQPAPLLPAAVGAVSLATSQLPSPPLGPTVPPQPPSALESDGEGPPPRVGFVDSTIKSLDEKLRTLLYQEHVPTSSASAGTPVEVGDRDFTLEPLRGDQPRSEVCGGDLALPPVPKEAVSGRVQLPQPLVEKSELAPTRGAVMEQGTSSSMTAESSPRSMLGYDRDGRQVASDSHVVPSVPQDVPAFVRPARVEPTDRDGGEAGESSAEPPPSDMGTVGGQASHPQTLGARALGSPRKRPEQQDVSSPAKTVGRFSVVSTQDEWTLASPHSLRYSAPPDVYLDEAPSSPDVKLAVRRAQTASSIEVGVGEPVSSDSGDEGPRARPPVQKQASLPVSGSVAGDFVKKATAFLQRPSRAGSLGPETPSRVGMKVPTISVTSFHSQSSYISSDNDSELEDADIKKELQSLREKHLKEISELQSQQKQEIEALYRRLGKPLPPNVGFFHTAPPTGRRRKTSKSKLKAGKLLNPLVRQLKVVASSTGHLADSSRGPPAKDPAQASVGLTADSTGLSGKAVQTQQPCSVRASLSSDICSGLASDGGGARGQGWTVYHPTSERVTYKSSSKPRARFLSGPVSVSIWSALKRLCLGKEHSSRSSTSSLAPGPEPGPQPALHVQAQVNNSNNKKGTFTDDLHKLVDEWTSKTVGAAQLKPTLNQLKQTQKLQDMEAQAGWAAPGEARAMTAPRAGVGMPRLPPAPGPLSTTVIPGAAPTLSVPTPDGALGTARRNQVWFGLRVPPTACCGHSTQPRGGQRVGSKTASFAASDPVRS

IRAK1 (human) = IRAK1 (human) (UniProt P51617)
PRKACA (human) = PRKACA (human) (UniProt P17612)
STK39 (human) = STK39 (human) (UniProt Q9UEW8)
FGFR1 (human) = FGFR1 (human) (UniProt P11362)
MARK2 (human) = MARK2 (human) (UniProt Q7KZI7)

Nc1nc(Nc2ccc(S(N)(=O)=O)cc2)nn1C(=O)c1c(F)cccc1F
residual activity (CDK6 CCND3 (human)): 36.3%
residual activity (DYRK1A (human)): 101%
residual activity (CSNK2A1 (human)): 104%
residual activity (FGFR3 (human)): 46.4%
residual activity (HCK (human)): 86.2%
residual activity (MAP3K7 TAB1 (human)): 77.4%
residual activity (TTK (human)): 77.5%
residual activity (DDR2 (human)): 113%
residual activity (CSK (human)): 88.9%
residual activity (MLTK (human)): 100%
residual activity (BRSK2 (human)): 49%
residual activity (LTK (human)): 85.8%
residual activity (PLK2 (human)): 94.2%
residual activity (PKN2 (human)): 85.6%
residual activity (MYLK (human)): 80%
residual activity (PRKCA (human)): 55.7%
residual activity (JAK2 JH1 JH2 (human)): 19.2%
residual activity (FGFR2 (human)): 79.7%
residual activity (WNK3 (human)): 98.3%
residual activity (CLK2 (human)): 71.5%
residual activity (BLK (human)): 90.1%
residual activity (ERBB4 (human)): 110%
residual activity (PRKX (human)): 89%
residual activity (EPHA3 (human)): 107%
residual activity (CAMKK2 (human)): 61.5%
residual activity (GSK3A (human)): 9.59%
residual activity (GRK6 (human)): 77.2%
residual activity (RPS6KA6 KD1 KD2 (human)): 24.7%
residual activity (SIK2 (human)): 84.1%
residual activity (ALK (human)): 90.1%
residual activity (STK16 (human)): 48.5%
residual activity (ZAP70 (human)): 94.8%
residual activity (DAPK2 (human)): 107%
residual activity (NEK4 (human)): 79.2%
residual activity (RPS6KA4 KD2 (human)): 90.2%
residual activity (SRPK1 (human)): 86.4%
residual activity (WNK2 (human)): 116%
residual activity (IRAK1 (human)): 89.8%
residual activity (PRKACA (human)): 98.8%
residual activity (STK39 (human)): 89.5%

COc1cc2ncnc(Nc3ccc(F)c(Cl)c3)c2cc1OCCCN1CCOCC1
residual activity (CDK6 CCND3 (human)): 118%
residual activity (DYRK1A (human)): 101%
residual activity (CSNK2A1 (human)): 114%
residual activity (FGFR3 (human)): 79.3%
residual activity (HCK (human)): 73.3%
residual activity (MAP3K7 TAB1 (human)): 91.3%
residual activity (TTK (human)): 96.3%
residual activity (DDR2 (human)): 117%
residual activity (CSK (human)): 95.4%
residual activity (MLTK (human)): 96.2%
residual activity (BRSK2 (human)): 103%
residual activity (LTK (human)): 90.4%
residual activity (PLK2 (human)): 100%
residual activity (PKN2 (human)): 93.1%
residual activity (MYLK (human)): 89.7%
residual activity (FGFR1 (human)): 96.4%
residual activity (PRKCA (human)): 93.6%
residual activity (JAK2 JH1 JH2 (human)): 99.8%
residual activity (FGFR2 (human)): 98.7%
residual activity (WNK3 (human)): 102%
residual activity (CLK2 (human)): 94.8%
residual activity (BLK (human)): 87.7%
residual activity (ERBB4 (human)): 24.2%
residual activity (EPHA3 (human)): 94.4%
residual activity (CAMKK2 (human)): 103%
residual activity (GSK3A (human)): 99.7%
residual activity (GRK6 (human)): 99.6%
residual activity (RPS6KA6 KD1 KD2 (human)): 95.2%
residual activity (SIK2 (human)): 49.3%
residual activity (ALK (human)): 98.8%
residual activity (STK16 (human)): 96.8%
residual activity (ZAP70 (human)): 96.5%
residual activity (DAPK2 (human)): 93.2%
residual activity (NEK4 (human)): 103%
residual activity (RPS6KA4 KD2 (human)): 104%
residual activity (SRPK1 (human)): 98.3%
residual activity (WNK2 (human)): 97.2%
residual activity (IRAK1 (human)): 57.6%
residual activity (MARK2 (human)): 119%
residual activity (PRKACA (human)): 96.3%
residual activity (STK39 (human)): 93.5%

CCN1/C(=C/C(C)=O)Sc2ccc(OC)cc21
residual activity (CDK6 CCND3 (human)): 104%
residual activity (DYRK1A (human)): 28.9%
residual activity (CSNK2A1 (human)): 98.1%
residual activity (FGFR3 (human)): 99.1%
residual activity (HCK (human)): 97.5%
residual activity (MAP3K7 TAB1 (human)): 99.9%
residual activity (TTK (human)): 88.7%
residual activity (DDR2 (human)): 96.6%
residual activity (CSK (human)): 104%
residual activity (MLTK (human)): 91%
residual activity (BRSK2 (human)): 89.5%
residual activity (LTK (human)): 87.1%
residual activity (PLK2 (human)): 100%
residual activity (PKN2 (human)): 99.7%
residual activity (MYLK (human)): 93.7%
residual activity (PRKCA (human)): 68.7%
residual activity (JAK2 JH1 JH2 (human)): 97.1%
residual activity (FGFR2 (human)): 97.1%
residual activity (WNK3 (human)): 88.1%
residual activity (CLK2 (human)): 25.9%
residual activity (BLK (human)): 95.4%
residual activity (ERBB4 (human)): 101%
residual activity (PRKX (human)): 96.6%
residual activity (EPHA3 (human)): 89.9%
residual activity (CAMKK2 (human)): 95.5%
residual activity (GSK3A (human)): 85.7%
residual activity (GRK6 (human)): 103%
residual activity (RPS6KA6 KD1 KD2 (human)): 89%
residual activity (SIK2 (human)): 116%
residual activity (ALK (human)): 105%
residual activity (STK16 (human)): 87.4%
residual activity (ZAP70 (human)): 103%
residual activity (DAPK2 (human)): 90.3%
residual activity (NEK4 (human)): 92.8%
residual activity (RPS6KA4 KD2 (human)): 91.8%
residual activity (SRPK1 (human)): 106%
residual activity (WNK2 (human)): 91.1%
residual activity (IRAK1 (human)): 114%
residual activity (MARK2 (human)): 89.5%
residual activity (PRKACA (human)): 98%
residual activity (STK39 (human)): 95.9%
